# Measurements taken from US20260068884A1, “COMPOSITION USED FOR KILLING FUNGI AND METHOD FOR APPLYING COMPOSITION” (JIANGSU FLAG CHEMICAL INDUSTRY CO., LTD., priority 2022, published 2026).
# Read-outs that look alike come from different tables or passages of the source.
# Legend:
# [1] = system: cucumber powdery mildew; assay: field efficacy test for cucumber powdery mildew; type: in vivo; settings: spray
# Protocol: Field efficacy test for preventing and treating cucumber powdery mildew.
# The test object is cucumber powdery mildew. The test is carried out on Xiaoying village of Liuhe district of Nanjing city, Jiangsu Province, China, the field trend of the test is flat, the soil is loam, the fertility is medium, the pH value is 6.8, and the management of rich water during the test is medium. And setting blank contrast, repeating the treatment for 3 times, wherein each cell has 30 square meters and is arranged in random block groups. The water consumption per acre is 40 L by adopting a conventional spraying method, and the water is uniformly sprayed on the front and back surfaces of the leaves.
# The investigation and statistical method comprises the steps of investigating the base of illness state before application of the medicament, and investigating once again 10-14 days after the last application of the medicament, wherein 2 times of investigation are total. Four points are randomly taken from each cell, 2 plants are investigated from each point, all leaves are investigated from each plant, and each leaf is graded and recorded according to the percentage of lesion spots to the leaf area. The grading method comprises the following steps: • stage 0: no lesion spots; • stage 1: the lesion area accounts for less than 5% of the whole leaf area; • stage 3: the ratio of the lesion spot area to the whole leaf area is more than 6% to less than 10%; • stage 5: the ratio of the lesion spot area to the whole leaf area is more than 11% to less than 25%; • stage 7: the ratio of the lesion spot area to the whole leaf area is more than 26% to less than 50%; • stage 9: the ratio of the lesion spot area to the whole leaf area is more than 50%;
# When the fungicidal activity of the active compound combination exceeds the sum of the activities of the active compounds when applied individually, then there is always a synergistic effect of the fungicides. The expected activity of a given combination of two active compounds can be calculated (according to the Colby formula) as follows (refer to S. R. Colby, “Calculation of the synergistic andantagonistic responses of herbicide combinations”, Weeds 1967, 15, pages 20-22):
# [formula] • X is the efficacy of component A when applied at an application rate of m g a.i./ha, • Y is the efficacy of component B when applied at an application rate of n g a.i./ha, • Cexp is the expected efficacy when the active compound A is administered at an application rate of m g a.i./ha and the active compound B is administered at an application rate of n g a.i./ha, respectively, • the degree of efficacy is expressed as %: 0% means the efficacy corresponding to the control group, while 100% efficacy means no disease observed. • C-Cobs/Cexp, C>1 indicates synergy and antagonism if C<1.
# [2] = system: rape sclerotinia sclerotiorum; assay: plate method, inhibition of hypha growth (in-vessel bioassay); type: cell-based; settings: for EC50: Sclerotinia sclerotiorum
# [3] = system: wheat rust (Puccinia striiformis f. sp. tritici); assay: pot culture method, protective control of wheat rust; type: in vivo; settings: for Measured Toxicity Index of Mixture (ATI): standard fungicide = component A; for EC50: Puccinia striiformis
# [4] = system: Blumeria graminis; assay: pot culture method, protective control of wheat powdery mildew; type: in vivo; settings: for Measured Toxicity Index of Mixture (ATI): standard fungicide = component A; for EC50: Blumeria graminis, control efficacy, potted wheat, sprayed 24 h before inoculation, 7 days after inoculation
# [5] = system: wheat scab germ (Fusarium graminearum); assay: microbe, parasite or virus in culture; type: cell-based; settings: for Measured Toxicity Index of Mixture (ATI): standard fungicide = component A
# [6] = single component B, g a.i./ha: azoxystrobin 72, fludioxonil 50, pyraclostrobin 160, difenoconazole 100
# [7] = hypha growth inhibition, plate method, wheat fusarium graminearum
Compound,EC50 [2],Measured Toxicity Index of Mixture (ATI) [3],Measured Toxicity Index of Mixture (ATI) [4],Measured Toxicity Index of Mixture (ATI) [5],EC50 [3],EC50 [4],EC50 ([5]; Fusarium graminearum),other results
CO/C=C(/C(=O)OC)c1ccccc1Oc1cc(Oc2ccccc2C#N)ncn1 [azoxystrobin],,,,,,,,"Cobs Actual control Effect [1, 6]: 50.28%"
N#Cc1c(Cl)c(Cl)c(Cl)c(C#N)c1Cl [chlorothalonil],0.82 µg/mL,,,,,,,Measured Toxicity Index of Mixture (ATI) [2]: 1.22
CC(C1CC1)C(O)(Cn1cncn1)c1ccc(Cl)cc1 (stereo not drawn) [ciproconazole],,233.08,94.12,0.50,,,,"EC50 [5, 7]: 2 µg/mL"
C=C(CN(C(=O)c1c(C(F)F)nn(C)c1F)C1CC1)c1ccc(Cl)cc1Cl [component A],0.01 µg/mL,100.00,100.00,100.00,29 µg/mL,16 µg/mL,0.01 µg/mL,Measured Toxicity Index of Mixture (ATI) ([2]; standard fungicide = component A): 100; Cobs Actual control Effect ([1]; 40 g a.i./ha): 37.60%; Cobs Actual control Effect ([1]; 60 g a.i./ha): 46.88%; Cobs Actual control Effect ([1]; 104 g a.i./ha): 54.68%; Cobs Actual control Effect ([1]; 150 g a.i./ha): 67.74%
CC1COC(Cn2cncn2)(c2ccc(Oc3ccc(Cl)cc3)cc2Cl)O1 (stereo not drawn) [difenoconazole],,,,,,,,"Cobs Actual control Effect [1, 6]: 67.85%"
N#Cc1c[nH]cc1-c1cccc2c1OC(F)(F)O2 [fludioxonil],0.015 µg/mL,,,,,,,"Measured Toxicity Index of Mixture (ATI) [2]: 66.67; Cobs Actual control Effect [1, 6]: 47.70%"
CC1(C)CCC(Cc2ccc(Cl)cc2)C1(O)Cn1cncn1 (stereo not drawn) [metconazole],,,,33.33,,,0.03 µg/mL,
CCOC(=O)C(C#N)=C(N)c1ccccc1 [phenamacril],,,,2.50,,,,"EC50 [5, 7]: 0.4 µg/mL"
CCCN(CCOc1c(Cl)cc(Cl)cc1Cl)C(=O)n1ccnc1 [prochloraz],0.08 µg/mL,,,50.00,,,0.02 µg/mL,Measured Toxicity Index of Mixture (ATI) [2]: 12.5
CCCC1COC(Cn2cncn2)(c2ccc(Cl)cc2Cl)O1 (stereo not drawn) [propiconazole],,193.33,145.45,,15 µg/mL,11 µg/mL,,
OC(Cc1ccccc1Cl)(Cn1nc[nH]c1=S)C1(Cl)CC1 (stereo not drawn) [prothioconazole],,322.22,114.29,0.25,9 µg/mL,14 µg/mL,4 µg/mL,
COC(=O)N(OC)c1ccccc1COc1ccn(-c2ccc(Cl)cc2)n1 [pyraclostrobin],,241.67,133.33,0.50,12 µg/mL,12 µg/mL,2 µg/mL,"Cobs Actual control Effect [1, 6]: 72.87%"
CC(C)(C)C(O)(CCc1ccc(Cl)cc1)Cn1cncn1 (stereo not drawn) [tebuconazole],0.1 µg/mL,181.25,123.08,16.67,16 µg/mL,13 µg/mL,0.06 µg/mL,Measured Toxicity Index of Mixture (ATI) [2]: 10.00
OCC1=C[C@H](N[C@H]2C[C@H](CO)[C@@H](O[C@@H]3O[C@H](CO)[C@@H](O)[C@H](O)[C@H]3O)[C@H](O)[C@H]2O)[C@H](O)[C@@H](O)[C@@H]1O [validamycin],,,,0.08,,,13 µg/mL,
fluazolidinamide,,116.00,80.00,,,,,
